Reference: the RepoRT retention time repository

Test: RP, Waters ACQUITY UPLC BEH C18, 50 × 2.1 mm, 1.7 µm, 55 °C, 0.4 mL/min, estimated dead time 0.28 min; A: 40% water + 60% acetonitrile + 0.1% acetic acid + 10 mM ammonium acetate; B: 10% acetonitrile + 90% isopropanol + 0.1% acetic acid + 10 mM ammonium acetate; gradient (min/%B) 0/40 2/43 2.1/50 12/54 12.1/70 18/99 19/99
Settings: stereoisomer not certain

| SMILES | LC retention time |
| --- | --- |
| CC12CCC3C(CCC4CC(OS(=O)(=O)O)CCC43C)C1CCC2=O (stereo not drawn) | 1 min |
| CCCCCCCCCCCCC(O)C(=O)O (stereo not drawn) [2-hydroxymyristic acid] | 0.92 min |
| CCCCCCCCCCCCCCCC(=O)OCC(O)COP(=O)([O-])OCC[N+](C)(C)C (stereo not drawn) [LPC(16:0/0:0)] | 1.35 min |
| CCCCCC=CCC=CCCCCCCCC(=O)OC(COC(=O)CCCCCCCCCCCCCCC)COP(=O)([O-])OCC[N+](C)(C)C (stereo not drawn) [PC(16:0/18:2)] | 7 min |
| CCCCCC=CCC=CCC=CCC=CCCCC(=O)OC(COCCCCCCCCCCCCCCCC)COP(=O)([O-])OCC[N+](C)(C)C (stereo not drawn) [PC(O-16:0/20:4)] | 8 min |
| CCCCCCCCC=CCCCCCCCC(=O)OC(COC(=O)CCCCCCCCCCCCCCC)COP(=O)(O)OC1C(O)C(O)C(O)C(O)C1O (stereo not drawn) [PI(16:0/18:1)] | 6 min |
| CCCCCC=CCC=CCC=CCC=CCCCC(=O)O [arachidonic acid] | 2 min |
| CC(CCC(=O)O)C1CCC2C3C(O)CC4CC(O)CCC4(C)C3CC(O)C12C (stereo not drawn) [cholic acid] | 1 min |
| CCCCCC/C=C\CCCC(=O)O [cis-5-dodecenoic acid] | 1 min |
| CCCCCCCC/C=C\CCCCCCCCCCCC(=O)O [cis-13-docosenoic acid] | 4 min |
| CCCCCCCCCCCC(=O)O [lauric acid] | 1 min |
| CCCCC/C=C\C/C=C\CCCCCCCC(=O)O [linoleic acid] | 2 min |
| C=CCCCCCCCCC(=O)O [undecylenic acid] | 1 min |
